Measurements from patent US20080004282A1, “Compositions and methods for modulating gated ion channels” (PainCeptor Pharma Corporation, priority 2006, published 2008).
Read-outs that look alike come from different tables or passages of the source.

Tests used:
[1] = molecular target: T1, ASIC1a (Homo sapiens, UniProt P78348); experiment: Calcium-imaging (FLIPR) of MES-induced calcium response in ASIC1a expressing HEK293 cells; type: cell-based; parameters: host or cells: HEK293
T1 sequence (P78348 1-528): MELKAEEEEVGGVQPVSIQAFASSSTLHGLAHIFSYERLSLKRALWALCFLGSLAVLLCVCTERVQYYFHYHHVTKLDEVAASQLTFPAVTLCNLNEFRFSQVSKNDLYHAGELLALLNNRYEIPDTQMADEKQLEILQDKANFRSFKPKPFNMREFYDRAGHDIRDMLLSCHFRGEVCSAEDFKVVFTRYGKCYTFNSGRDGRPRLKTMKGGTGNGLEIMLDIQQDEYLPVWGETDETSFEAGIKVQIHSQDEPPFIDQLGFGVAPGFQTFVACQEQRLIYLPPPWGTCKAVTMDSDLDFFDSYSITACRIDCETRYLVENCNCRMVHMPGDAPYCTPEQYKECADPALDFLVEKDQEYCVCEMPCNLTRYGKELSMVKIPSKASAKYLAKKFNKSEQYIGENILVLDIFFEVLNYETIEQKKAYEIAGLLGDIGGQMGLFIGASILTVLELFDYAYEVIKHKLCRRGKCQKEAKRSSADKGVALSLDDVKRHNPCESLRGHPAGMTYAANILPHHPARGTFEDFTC
Description: Identification of ASIC Antagonists Using Calcium-Imaging
ASIC1a expressing HEK293 cells are grown in culture medium (DMEM with 10% FBS), in polystyrene culture flasks (175 mm 2) at 37° C. in a humidified atmosphere of 5% CO2. Confluency of cells should be 80-90% on day of plating. Cells are rinsed with 10 ml of PBS and cells are re-suspended by addition of culture medium and trituration with a 25 ml pipette.
The cells are seeded at a density of approximately 1×10^6 cells/ml (100 μl/well) in black-walled, clear bottom, 96-well plates pre-treated with 10 mg/l poly-D-lysin (75 μl/well for ≧30 min). Plated cells are allowed to proliferate for 24 h before loading with dye.
Loading with Fluorescent Calcium Dye Fluo-4/AM
Fluo-4/AM (1 mg, Molecular Probes) is dissolved in 912 μl DMSO. The Fluo-4/AM stock solution (1 mM) is diluted with culture medium to a final concentration of 2 μM (loading solution).
The culture medium is aspirated from the wells, and 50 μl of the Fluo-4/AM loading solution is added to each well. The cells are incubated at 37° C. for 30 min.
After the loading period, the loading solution is aspirated and the cells are washed twice with 100 μl modified Assay Buffer (145 mM NaCl, 5 mM KCl, 5 mM CaCl2, 1 mM MgCl2, 10 mM HEPES, pH 7.4) to remove extracellular dye. Following the second wash, 100 μl modified Assay Buffer is added to each well and the fluorescence is measured in FLIPR™ or FlexStation™ (Molecular Devices, USA), or any other suitable equipment known to the skilled in the art.
Temperature: Room temperature (20-22° C.)
First addition: 50 μl test solution at a rate of 30 μl/sec and a starting height of […]
Second addition: 50 μl MES solution (20 mM, 5 mM final concentration) at a rate of 35 μl/sec and a starting height of 150 μl.
Reading intervals: pre-incubation—10 sec×7 and 3 sec×3 antagonist phase—3 sec×17 and 10 sec×12
Addition plates (compound test plate and MES plate) are placed on the right and left positions in the FLIPR tray, respectively. Cell plates are placed in the middle position and the ASIC1a program is effectuated. FLIPR will then take the appropriate measurements in accordance with the interval settings above. Fluorescence obtained after stimulation is corrected for the mean basal fluorescence (in modified Assay Buffer).
Hit Confirmation and Characterization of Active Substances
The MES-induced peak calcium response, in the presence of test substance, is expressed relatively to the MES response alone. Test substances that block the MES-induced calcium response are re-tested in triplicates. […]

[2] = molecular target: T1, ASIC1a; experiment: Two-electrode voltage clamp of acid-induced currents in Xenopus laevis oocytes; type: cell-based; parameters: expressed in transfected cells; host or cells: Xenopus laevis oocytes, nuclear microinjection of an expression vector such as pCDNA3; conditions: 50 μM, Xenopus oocytes; read-out: % inh. at 50 μM (Xo)
Description: Screening and Bioanalysis of ASIC Antagonists in Xenopus laevis oocytes
This example describes the in vitro assessment of the activity of the compounds of the present invention.
Two-electrode voltage clamp electrophysiological assays in Xenopus laevis oocytes expressing gated ion channels are performed as follows:
Oocytes are surgically removed from adult Xenopus laevis and treated for 2 h at room temperature with 1 mg/ml type I collagenase (Sigma) in Barth's solution under mild agitation. Selected oocytes at stage IV-V are defolliculated manually before nuclear microinjection of 2.5-5 ng of a suitable expression vector, such as pCDNA3, comprising the nucleotide sequence encoding a gated ion channel subunit protein. In such an experiment, the oocytes express homomultimeric proton-gated ion channels on their surface. In an alternate experiment, one, two, three or more vectors comprising the coding sequences for distinct gated ion channel subunits are co-injected in the oocyte nuclei. In the latter case, oocytes express heteromultimeric proton-gated ion channels. For example, ASIC2a and/or ASIC3 subunits in pcDNA3 vector are co-injected at a 1:1 cDNA ratio. After 2-4 days of expression at 19° C. in Barth's solution containing […] gentamicin and 1.8 mM CaCl2, gated ion channels are activated by applying an acidic solution (pH<7) and currents are recorded in a two electrode voltage-clamp configuration, using an OC-725B amplifier (Warner Instruments). Currents are acquired and digitized at 500 Hz on an Apple Imac G3 computer with an A/D NB-MIO-16XL interface (National Instruments) and recorded traces are post-filtered at 100 Hz in Axograph (Axon Instruments) (Neher, E. and Sakmann, B. (1976) Nature 260:799-802). Once impaled with the microelectrodes, oocytes are continuously superfused at 10-12 ml/min with a modified Ringer's solution containing 97 mM NaCl, 2 mM KCl, 1.8 mM CaCl2, and 10 mM HEPES brought to pH 7.4 with NaOH (Control Ringer). Test Ringer solution is prepared by replacing HEPES with MES and adjusting the pH to the desired acidic value. Compounds of the present invention are prepared in both the Control and Test Ringer solutions and applied to oocytes at room temperature through a computer-controlled switching valve system. Osmolarity of all solutions is adjusted to 235 mOsm with choline chloride. Similarly, recordings can also be acquired in an automated multichannel oocytes system as the OpusExpress™ (Molecular Devices, Sunnyvale, USA).
FIGS. 1A and 2A illustrate the inhibitory effects of Compounds 12 and 44 on acid-induced activation of recombinant homomeric hASIC1a channels. FIGS. 1A and 2A show the dose-dependent inhibition of the acid-induced hASIC1a currents recorded from Xenopus laevis oocytes using the two-electrode voltage clamp method (as described in this example) in the absence or presence of increasing concentration of the compounds.

[3] = MES-induced calcium response, ASIC1a expressing HEK293 cells, read-out: IC50 (FLIPR)

Structure (SMILES)	IC50 [1, 3]	inhibition at 50 µM [2]	IC50 [1]
CCN1CCc2c(-c3ccccc3)cc(C#N)c(N(C)C)c2C1 [Compound 50]	10 to 20 µM	> 50%	
CCN1CCc2c(-c3ccccc3OC)cc(C#N)c(N)c2C1 [Compound 45]	10 to 20 µM	> 50%	
CCN1CCc2c(-c3cc(C)cc(C)c3)cc(C#N)c(N)c2C1 [Compound 48]		> 50%	< 10 µM
